In assay [1] the test system is human NSCLC cell lines H1734, H2030, H1975, H3255. Put plainly: Alamar blue viable cell assay in NSCLC cell lines. The format is cell-based. Conditions: increasing FTS concentrations, 96 hours; H1734, H2030 (KRAS mutations), H1975, H3255 (EGFR mutations). As for the experimental part: To determine whether FTS sensitized other human NSCLC cell lines to cell death, experiments were conducted on cell lines H1734 and H2030 (KRAS mutations) and H1975 and H3255 (EGFR mutations). The four cell lines were grown in increasing concentrations of FTS (dissolved in DMSO). After 96 hours, viable cells were quantified using an Alamar blue assay. Results are the mean±standard error of three independent experiments, in which there were 3 replicates of each condition, as shown in FIG. 15.

In another assay the test system is A549 cells. Nature of the assay: Immunofluorescence of cytoskeleton (F-actin, vinculin) and cell morphology. Type of assay: cell-based, human. Conditions: 75 μM FTS, 48 h. As for the experimental part:
A549 cells were plated on glass cover slips (2×10^4 cells/well in 6-well plates), incubated for 24 h in medium containing 5% FCS, and then incubated for 48 h with or without 75 μM FTS. The cells were fixed and permeabilized at room temperature by successive incubations with 3.7% formaldehyde (20 min) and 0.2% Triton X-100 in PBS (5 min), then washed for 5 min with UB buffer (150 mM NaCl, 10 mM Tris pH 7.6, and 0.2% sodium azide in PBS) and blocked with 2% BSA in UB (UBB, 5 min). The fixed cells were incubated successively with naïve goat IgG for 30 min (200 μg/ml, Jackson ImmunoResearch Laboratories, West Grove, Pa.), anti-vinculin Ab for 1 h (1:400, Sigma-Aldrich), goat anti-mouse Cy2-conjugated Ab for 1 h (1:200, Jackson), and rhodamine-labeled phalloidin for 1 h (1:1000, Sigma-Aldrich). Between each of the above steps the cells were washed for 30 min with UBB. Lastly, the cover slips were washed with UB, dried, and mounted onto the slides with Muviol. F-actin (red) and vinculin (green) were visualized with a Zeiss LSM 510 confocal microscope fitted with non-leaking green and red fluorescence filters. Co-localization was assessed using the co-localization function of the LSM 510 software. […]

Consider `CC(C)=CCC/C(C)=C/CC/C(C)=C/CSc1ccccc1C(=O)O` [FTS, S-farnesylthiosalicylic acid], for which the “sensitization of NSCLC cell lines to cell death” value in assay [1] is listed as “sensitized”. Besides, in the assay on A549 cells, the “cells that had undergone changes in cell morphology” value is reported as “more than 80%”.

For the origin of these results see US8232253B2, “Treatment of lung cancer” (Ramot at Tel-Aviv University Ltd., priority 2006, dated 2012).
